The source of these data is patent US11708500B2, “Solvent compounds for use as coalescents” (TBF ENVIRONMENTAL TECHNOLOGY INC., priority 2017, dated 2023).

Data set [1] is described as follows: XTR5 vs Texanol paint in Raycryl 1526 acrylic emulsion polymer. Conditions: Raycryl 1526 paint. The text has this:
(§1) Bis(1-butoxypropan-2-yl) carbonate (TreviSol, XTR5) was used as a direct replacement for other typical coalescents, such as, Texanol™, as follows.

Data set [2] in a line: XTR5 vs Texanol coating in EPS 2708 acrylic emulsion polymer. To be noted: EPS 2708 coating.
Description: as §1

The nature of data set [3]: XTR5 vs Texanol coating in Raycryl 1001 acrylic emulsion polymer. Conditions: Raycryl 1001 coating.
Description: as §1

Data set [4] is described as follows: Physical/chemical properties of XTR5.

Like-named read-outs stand apart in the source and are kept apart here.

Consider `CCCCOCC(C)OC(=O)OC(C)COCCCC` (centres unmarked) [XTR5, bis(1-butoxypropan-2-yl) carbonate], for which, in data set [1], the “Specific Gravity” value was 1.25 g/cm3, the “VOC (Without Water)” value was 45.0 g/L, the Viscosity came to 90 KU and the “Volume Solid %” value came out at 40.91%. The “Weight Solid %” value in data set [1] worked out at 51.91%. In addition, in data set [2], the “Specific Gravity” value was found to be 1.33 g/cm3, the “VOC (Without Water)” value came out at 59.6 g/L, the Viscosity turned out to be 95 KU and the “Volume Solid %” value amounted to 41.0%. Further, the “Weight Solid %” value in data set [2] was 54.5%. For the same molecule, in data set [3], the “Specific Gravity” value is 1.32 g/cm3, the “VOC (Without Water)” value stood at 1.5 g/L, the Viscosity is 95 KU and the “Volume Solid %” value was determined as 41.1%. Further, the “Weight Solid %” value in data set [3] is 54.6%. For the same molecule, in data set [4], the Clarity entry was “Clear”; the “Colour (Alpha, max)” value turned out to be 10; the Density result was “(7.94 lb/gal)”; the “Evaporation Rate” value was “Slow and Close to Texanol”. Also, in data set [4], the “Partial Coefficient (Range)” value is on record as 0.7-2.0, the “Texanol Solubility” value is “Soluble”, the VOC is reported as 0 g/L and the “Volatility (%)” value amounted to 100%. Further, the “Water Solubility” value in data set [4] is “Not Soluble”. Further, in data set [4] (@15.5°), the “Specific Gravity” value is given as 0.956. This molecule had a Density in data set [4] (@ 20° C.) of 0.951 g/mL. Further, in data set [4] (@ 25° C.), the “Solubility in H2O” value is “Insoluble”, the “Vapour Pressure” value was 0.005 mm Hg and the Viscosity worked out at 0.58 cP. Also, in data set [4] (Air = 1), the “Vapour Density (mm Hg Air = 1)” value amounted to 0.95. In addition, the “TGA Weight Loss” value in data set [4] (Ambient 115-240° C.) is listed as 97.94%. Further, the “Evaporation Rate (n-Butyl Acetate = 1)” value in data set [4] (n-Butyl Acetate = 1) was 0.0004.

As to `CC(C)C(=O)OCC(C)(C)C(O)C(C)C` (centres unmarked) [Texanol, 2-methyl-, 3-hydroxy-2,2,4-trimethylpentyl ester, reference compound], in data set [1], the “Specific Gravity” value was determined as 1.25 g/cm3, the “VOC (Without Water)” value turned out to be 95.0 g/L, the Viscosity is listed as 90 KU and the “Volume Solid %” value came to 40.91%. In addition, the “Weight Solid %” value in data set [1] is 51.91%. In data set [2], the “Specific Gravity” value was determined as 1.33 g/cm3, the “VOC (Without Water)” value is on record as 103.3 g/L, the Viscosity came to 95 KU and the “Volume Solid %” value came to 41.0%. Also, the “Weight Solid %” value in data set [2] turned out to be 54.5%. Moreover, in data set [3], the “Specific Gravity” value stood at 1.32 g/cm3, the “VOC (Without Water)” value is 54.6 g/L, the Viscosity was determined as 95 KU and the “Volume Solid %” value came to 41.1%. The “Weight Solid %” value in data set [3] is reported as 54.6%.
